Experimental data: patent US20060069132A1, “Azolecarboxamide herbicides” (priority 2004, published 2006)

How the values were obtained:
[1] = system: barnyardgrass; assay: Test B pre-/postemergence herbicide test; format: in vivo, Echinochloa crus-galli; conditions: for Barnyardgrass plant response rating: postemergence, scale 0 (no effect) to 100 (complete control)
How it was run: (§1)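 Response was scored visually 13 to 15 days after treatment against untreated greenhouse controls, 0 meaning no effect and 100 complete control. Formulations (solvent mixture plus surfactant) went onto soil after planting, onto foliage of 1- to 4-leaf plants, and onto 2-leaf plants in a flooded paddy set including rice and barnyardgrass.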

[2] = system: Surinam grass; assay: Test B pre-/postemergence herbicide test; format: in vivo, Urochloa decumbens; conditions: for Surinam Grass plant response rating: postemergence
How it was run: (§2)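 Pre: seeds sown, then sprayed. Post: 1–4-leaf plants (2–18 cm) sprayed at the same time. Paddy: flooded, treated at 2-leaf stage. Formulation: non-phytotoxic solvent with surfactant. Greenhouse 13–15 days; visual 0–100 score relative to controls.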

[3] = system: cocklebur; assay: Test B pre-/postemergence herbicide test; format: in vivo, Xanthium strumarium; conditions: for Cocklebur plant response rating: postemergence, scale 0 (no effect) to 100 (complete control)
How it was run: as §1

[4] = system: corn; assay: Test B pre-/postemergence herbicide test; format: in vivo, Zea mays; conditions: for Corn plant response rating: postemergence
How it was run: as §2

[5] = system: large crabgrass; assay: Test B pre-/postemergence herbicide test; format: in vivo, Digitaria sanguinalis; conditions: for Crabgrass, Large plant response rating: postemergence
How it was run: as §2

[6] = system: giant foxtail; assay: Test B pre-/postemergence herbicide test; format: in vivo, Setaria faberi; conditions: for Foxtail, Giant plant response rating: postemergence
How it was run: as §2

[7] = system: lambsquarters; assay: Test B pre-/postemergence herbicide test; format: in vivo, Chenopodium album; conditions: for Lambsquarters plant response rating: postemergence
How it was run: as §2

[8] = system: morningglory; assay: Test B pre-/postemergence herbicide test; format: in vivo, Ipomoea coccinea; conditions: for Morningglory plant response rating: postemergence
How it was run: as §1

[9] = system: pigweed; assay: Test B pre-/postemergence herbicide test; format: in vivo, Amaranthus retroflexus; conditions: for Pigweed plant response rating: postemergence
How it was run: as §2

[10] = system: rice; assay: Test B pre-/postemergence herbicide test; format: in vivo, Oryza sativa; conditions: 0 = no effect, 100 = complete control, preemergence
How it was run: as §2

[11] = system: velvetleaf; assay: Test B pre-/postemergence herbicide test; format: in vivo, Abutilon theophrasti; conditions: for Velvetleaf plant response rating: postemergence
How it was run: as §2

[12] = system: blackgrass; assay: Test B postemergence herbicide test; format: in vivo, Alopecurus myosuroides; conditions: postemergence, visual rating, scale 0 (no effect) to 100 (complete control)
How it was run: (§3)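 Visual control ratings, 0–100 versus untreated controls, taken after 13 to 15 days in the greenhouse. Blackgrass received a postemergence spray at the 1- to 4-leaf stage (2–18 cm); ducksalad, umbrella sedge and barnyardgrass were flooded-paddy treated at 2 leaves.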

[13] = system: wheat; assay: Test B postemergence herbicide test; format: in vivo, Triticum aestivum; parameters: key to Wheat plant response rating: 0 = no effect, 100 = complete control; conditions: postemergence
How it was run: (§4)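 Formulated test chemicals went onto postemergence plants measuring 2 to 18 cm, at one to four leaves. For the paddy assay, species had reached two leaves. Scoring took place 13–15 days later by eye, relative to untreated plants, using 0 for no effect up to 100 for full control.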

[14] = system: wild oat; assay: Test B postemergence herbicide test; format: in vivo, Avena fatua; conditions: postemergence
How it was run: as §4

[15] = system: rice; assay: Test B flooded paddy test; format: in vivo, Oryza sativa; conditions: 1000 g ai/ha, scale 0 to 100 (0 no effect, 100 complete control)
How it was run: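 Plants grow to 1- to 4-leaf stage (2–18 cm) for postemergence spraying, or to 2-leaf stage for the paddy test. Formulated compound is applied. Greenhouse holding lasts 13–15 days. Response is scored visually relative to controls, 0 no effect to 100 complete control; a dash means no result.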

[16] = system: small flower umbrella sedge; assay: Test B flooded paddy test; format: in vivo, Cyperus difformis; conditions: 1000 g ai/ha, scale 0 to 100 (0 no effect, 100 complete control)
How it was run: as §3

[17] = system: ducksalad; assay: Test B flooded paddy test; format: in vivo, Heteranthera limosa; conditions: 1000 g ai/ha, scale 0 to 100 (0 no effect, 100 complete control)
How it was run: as §3

[18] = system: barnyardgrass; assay: Test B flooded paddy test; format: in vivo, Echinochloa crus-galli; conditions: 1000 g ai/ha, scale 0 to 100 (0 no effect, 100 complete control)
How it was run: as §3

[19] = system: rice; assay: Test C flooded paddy test; format: in vivo, Oryza sativa
How it was run: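 Injury scored visually against controls on a 0 (no effect) to 100 (complete control) scale, 12 to 14 days after treatment in greenhouse. Flooded paddy plants treated at 2-leaf stage; postemergence plants at 1- to 4-leaf stage, 2 to 18 cm tall.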

[20] = system: smallflower umbrella sedge; assay: Test C flooded paddy test; format: in vivo, Cyperus difformis
[21] = system: ducksalad; assay: Test C flooded paddy test; format: in vivo, Heteranthera limosa
[22] = system: barnyardgrass; assay: Test C flooded paddy test; format: in vivo, Echinochloa crus-galli
How it was run: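 Greenhouse test with a 12–14 day hold after application and visual comparison with controls. Emerged plants were 1- to 4-leaf stage (2–18 cm) when sprayed postemergence, and the paddy barnyardgrass was at 2 leaves under flooded conditions. 100 = complete control.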

[23] = 125 g ai/ha, 0 = no effect, 100 = complete control, preemergence
[24] = 500 g ai/ha, visual rating, 0 = no effect, 100 = complete control, preemergence
[25] = 125 g ai/ha, visual rating, scale 0 (no effect) to 100 (complete control)
[26] = 500 g ai/ha, scale 0 to 100, 0 is no effect, 100 is complete control
[27] = 62 g ai/ha, scale 0 to 100 (0 no effect, 100 complete control)
[28] = 125 g ai/ha, scale 0 to 100 (0 no effect, 100 complete control)
[29] = 250 g ai/ha, scale of 0 to 100, 0 is no effect, 100 is complete control
[30] = 500 g ai/ha, visual rating after 12 to 14 days, scale 0 to 100 (0 no effect, 100 complete control)

Question: Which results are given for `CCn1nc(C(C)(C)C)cc1C(=O)Nc1cccc(C(=O)N2CCCC2)n1` [Compound 245]?
Answer: Barnyardgrass plant response rating (0 to 100 scale) [1, 23]: 70; Plant response rating, Barnyardgrass [1, 24]: 100; Barnyardgrass plant response rating ([1]; 125 g ai/ha, visual rating): 40; Barnyardgrass plant response rating ([1]; 500 g ai/ha, visual rating): 70; Surinam Grass plant response rating (0 to 100 scale) [2, 23]: 40; Plant response rating, Surinam Grass [2, 24]: 80; Surinam Grass plant response rating [2, 25]: 30; Surinam Grass plant response rating [2, 26]: 60; Cocklebur plant response rating (0 to 100 scale) [3, 23]: 0; Plant response rating, Cocklebur [3, 24]: 0; Cocklebur plant response rating ([3]; 125 g ai/ha, visual rating): 40; Cocklebur plant response rating ([3]; 500 g ai/ha, visual rating): 80; Corn plant response rating (0 to 100 scale) [4, 23]: 0; Plant response rating, Corn [4, 24]: 10; Corn plant response rating [4, 25]: 10; Corn plant response rating [4, 26]: 30; Crabgrass, Large plant response rating (0 to 100 scale) [5, 23]: 60; Plant response rating, Crabgrass, Large [5, 24]: 100; Crabgrass, Large plant response rating [5, 25]: 10; Crabgrass, Large plant response rating [5, 26]: 50; Foxtail, Giant plant response rating (0 to 100 scale) [6, 23]: 60; Plant response rating, Foxtail, Giant [6, 24]: 90; Foxtail, Giant plant response rating [6, 25]: 30; Foxtail, Giant plant response rating [6, 26]: 60; Lambsquarters plant response rating (0 to 100 scale) [7, 23]: 90; Plant response rating, Lambsquarters [7, 24]: 100; Lambsquarters plant response rating [7, 25]: 80; Lambsquarters plant response rating [7, 26]: 90; Morningglory plant response rating (0 to 100 scale) [8, 23]: 10; Plant response rating, Morningglory [8, 24]: 20; Morningglory plant response rating [8, 25]: 10; Morningglory plant response rating [8, 26]: 60; Pigweed plant response rating (0 to 100 scale) [9, 23]: 100; Plant response rating, Pigweed [9, 24]: 100; Pigweed plant response rating [9, 25]: 60; Pigweed plant response rating [9, 26]: 80; Rice plant response rating (0 to 100 scale) ([10]; 125 g ai/ha): 20; Plant response rating, Rice ([10]; 500 g ai/ha, visual rating): 50; Velvetleaf plant response rating (0 to 100 scale) [11, 23]: 40; Plant response rating, Velvetleaf [11, 24]: 90; Velvetleaf plant response rating [11, 25]: 70; Velvetleaf plant response rating [11, 26]: 80; Blackgrass plant response rating ([12]; 125 g ai/ha): 0; Blackgrass plant response rating ([12]; 500 g ai/ha): 0; Wheat plant response rating [13, 25]: 10; Wheat plant response rating [13, 26]: 20; Oat, Wild plant response rating [14, 25]: 20; Oat, Wild plant response rating [14, 26]: 30; Rice plant response rating [15]: 80; Sedge, Umbrella plant response rating [16]: 50; Ducksalad plant response rating [17]: 80; Barnyardgrass plant response rating [18]: 90; Rice plant response rating [19, 27]: 25; Rice plant response rating [19, 28]: 65; Rice plant response rating [19, 29]: 70; Plant response rating, Rice [19, 30]: 70; Sedge, Umbrella plant response rating [20, 27]: 55; Sedge, Umbrella plant response rating [20, 28]: 70; Sedge, Umbrella plant response rating [20, 29]: 70; Plant response rating, Sedge, Umbrella [20, 30]: 70; Ducksalad plant response rating [21, 27]: 60; Ducksalad plant response rating [21, 28]: 75; Ducksalad plant response rating [21, 29]: 75; Plant response rating, Ducksalad [21, 30]: 75; Barnyardgrass plant response rating [22, 27]: 0; Barnyardgrass plant response rating [22, 28]: 35; Barnyardgrass plant response rating [22, 29]: 45; Plant response rating, Barnyardgrass [22, 30]: 70
